Measured values: PubChem BioAssay (NCI)
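How tested: cells in 96-well plates exposed to compound for 48 hours at five concentrations. TGI denotes the concentration required for complete inhibition of growth.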 *1 amine or outer side, *2 acyl side, *3 side chain or, on linkers, in order; H or OH if unused. Where a SMILES comes first, the peptide text is derived from it. [ ]: non-standard residue; d: D form. ξ: configuration not given here. X22 = O=C(C(CC(O)CO)O[*:1])[*:2]; Ile(3ξ) = CCC(C)[C@H](N)C(=O)O; NMeV = CN[C@H](C(=O)O)C(C)C; NMeA = CN[C@@H](C)C(=O)O; βAla = NCCC(=O)O

Experiments:
Test in all cases: NCI tumour cell line growth inhibition, 48 h
SW-620 colon = test system: SW-620 colon
HT29 colon = test system: HT29 colon
IGROV1 ovarian = test system: IGROV1 ovarian
HCT-116 colon = test system: HCT-116 colon
SNB-75 CNS = test system: SNB-75 CNS
ACHN renal = test system: ACHN renal
HL-60(TB) leukemia = test system: HL-60(TB) leukemia
HOP-92 NSCLC = test system: HOP-92 NSCLC
DU-145 prostate = test system: DU-145 prostate
SF-539 CNS = test system: SF-539 CNS
SK-MEL-28 melanoma = test system: SK-MEL-28 melanoma
PC-3 prostate = test system: PC-3 prostate
SK-OV-3 ovarian = test system: SK-OV-3 ovarian
SNB-19 CNS = test system: SNB-19 CNS
SF-295 CNS = test system: SF-295 CNS
MCF7 breast = test system: MCF7 breast
A498 renal = test system: A498 renal
NCI-H460 lung = test system: NCI-H460 lung
SN12C renal = test system: SN12C renal
MDA-N = test system: MDA-N

Structure (SMILES) | TGI (SW-620 colon) [µM] | TGI (HT29 colon) [µM] | TGI (IGROV1 ovarian) [µM] | TGI (HCT-116 colon) [µM] | TGI (SNB-75 CNS) [µM] | TGI (ACHN renal) [µM] | TGI (HL-60(TB) leukemia) [µM] | TGI (HOP-92 NSCLC) [µM] | TGI (DU-145 prostate) [µM] | TGI (SF-539 CNS) [µM] | TGI (SK-MEL-28 melanoma) [µM] | TGI (PC-3 prostate) [µM] | TGI (SK-OV-3 ovarian) [µM] | TGI (SNB-19 CNS) [µM] | TGI (SF-295 CNS) [µM] | TGI (MCF7 breast) [µM] | TGI (A498 renal) [µM] | TGI (NCI-H460 lung) [µM] | TGI (SN12C renal) [µM] | TGI (MDA-N) [µM]
CC(=O)N(CCCCNC(=O)C(F)(F)F)CCCNC(=O)C(F)(F)F | > 100 | > 100 | > 100 | > 100 | > 100 | > 100 | > 100 | > 100 | > 100 | > 100 | > 100 | > 100 | > 100 | > 100 | > 100 | > 100 | > 100 | > 100 | > 100 | –
COC(=O)/C(=N/NC(C)(C)C)C(C(=O)OC)C(=O)C(=O)Nc1nc2ccc([N+](=O)[O-])cc2s1 (stereo unspecified) | > 100 | > 100 | > 100 | > 100 | – | > 100 | > 100 | – | – | > 100 | > 100 | – | > 100 | > 100 | > 100 | – | > 100 | > 100 | > 100 | –
C[N+]1(C)C[C@@H](O)C[C@@H]1C(=O)[O-] | > 100 | > 100 | > 100 | > 100 | > 100 | > 100 | > 100 | > 100 | – | > 100 | > 100 | – | > 100 | > 100 | > 100 | – | > 100 | > 100 | > 100 | –
CSc1nc2nc(C(O)C(O)C(O)CO)cnc2c(=O)[nH]1 (stereo unspecified) | > 100 | > 100 | > 100 | > 100 | > 100 | > 100 | > 100 | – | – | > 100 | > 100 | – | > 100 | > 100 | > 100 | – | > 100 | > 100 | > 100 | –
CC(=O)NC(CCCNC(=O)OCc1ccccc1)C(=O)O (stereo unspecified) | > 100 | > 100 | > 100 | > 100 | > 100 | > 100 | – | > 100 | – | > 100 | > 100 | – | > 100 | > 100 | > 100 | – | > 100 | > 100 | > 100 | –
CCOC(=O)C1=C(c2ccccc2)N(C(C)=O)Cc2ccccc21 | > 100 | 33.8 | > 100 | 30.2 | 77.1 | 66.7 | 37.5 | 20.7 | – | 30.9 | 36.6 | – | > 100 | > 100 | 37.8 | – | – | 41.3 | 77.1 | –
CCC(C)[C@@H]1NC(=O)[C@@H]2CCCN2C(=O)C(CC(O)CO)OC(=O)CCNC(=O)[C@H](C)N(C)C(=O)[C@H](C(C)C)N(C)C1=O (stereo partly specified) (cyclo([Ile(3ξ)][NMeV][NMeA][βAla][X22]P)) | > 100 | > 100 | > 100 | > 100 | > 100 | – | > 100 | > 100 | – | > 100 | > 100 | – | > 100 | > 100 | > 100 | – | > 100 | > 100 | > 100 | –
O=C(c1ccccc1)N1CCC(Nc2nccs2)O1 (stereo unspecified) | > 10 | > 10 | > 10 | > 10 | > 10 | > 10 | > 10 | – | > 10 | > 10 | > 10 | > 10 | > 10 | > 10 | > 10 | > 10 | – | > 10 | > 10 | –
N=c1oc2ccccc2cc1C(=O)Nc1nccs1 | > 100 | > 100 | > 49.2 | > 100 | 99 | 26.8 | 5.92 | > 100 | > 79.4 | – | > 100 | > 100 | > 83.4 | > 100 | > 100 | > 100 | > 100 | > 76.5 | > 100 | –
Cc1ccc(S(=O)(=O)Oc2nc3nc4ccccc4nc3nc2OS(=O)(=O)c2ccc(C)cc2)cc1 | – | > 100 | > 100 | > 100 | > 100 | > 100 | – | – | > 100 | > 100 | > 100 | > 100 | > 100 | > 100 | > 100 | > 100 | > 100 | > 100 | > 100 | –
Cc1cc(-c2cscn2)c(O)c([N+](=O)[O-])c1 | > 100 | > 100 | > 100 | > 100 | – | > 100 | > 100 | > 100 | – | > 100 | – | > 100 | 96 | > 100 | > 100 | > 100 | 99.7 | > 100 | > 100 | > 100
N#CC1CCCCC1NC1(C#N)CCCCC1 (stereo unspecified) | > 100 | > 100 | > 100 | – | > 100 | – | > 100 | – | – | > 100 | > 100 | – | > 100 | > 100 | > 100 | – | > 100 | – | > 100 | –
CCOC(=O)c1c2ccc(/C=C/c3ccccc3)ccc-2c(C(=O)OCC)c1N | > 100 | > 100 | > 100 | > 100 | 99.4 | > 100 | > 100 | > 100 | – | > 100 | > 100 | – | > 100 | > 100 | > 100 | – | 99.8 | > 100 | – | –
O=c1c2n[nH]nc2nc2n1CC(c1ccccc1)S2 (stereo unspecified) | > 100 | – | > 100 | > 100 | > 100 | > 100 | > 100 | – | > 100 | > 100 | > 100 | – | > 100 | > 100 | > 100 | > 100 | > 100 | > 100 | > 100 | > 100
O=S(=O)(Oc1ccc2ccccc2c1-c1c(OS(=O)(=O)C(F)(F)F)ccc2ccccc12)C(F)(F)F | > 100 | > 100 | > 100 | > 100 | > 100 | > 100 | > 100 | 34.2 | – | > 100 | > 100 | > 100 | > 100 | > 100 | > 100 | > 100 | > 100 | > 100 | – | –
CCSc1nnc(-c2ccccc2)nc1Cc1ccc(OC)cc1 | > 100 | > 100 | > 100 | > 100 | > 100 | > 100 | > 100 | > 100 | – | > 100 | > 100 | – | > 100 | > 100 | > 100 | – | > 100 | > 100 | > 100 | –
COc1ccc(/C=C2\N=C(c3ccccc3)OC2=O)cc1OC(C)=O | > 100 | > 100 | > 100 | > 100 | > 100 | > 100 | > 100 | > 100 | > 100 | > 100 | > 100 | > 100 | > 100 | > 100 | – | > 100 | > 100 | > 100 | > 100 | –
CCn1c(O)c(C=Nc2ccccc2)s/c1=N/Nc1nc(-c2ccc(O)c(O)c2)cs1 | > 100 | > 100 | > 100 | > 100 | > 100 | > 100 | 6.04 | > 100 | > 100 | 4.76 | > 100 | > 100 | > 100 | > 100 | 85.6 | > 100 | – | > 100 | > 100 | –
CC(NC(=O)OC(C)(C)C)C(=O)NC(Cc1ccccc1)C(=O)NCC(=O)Oc1c(Cl)c(Cl)c(Cl)c(Cl)c1Cl (stereo unspecified) | 47 | 73.2 | 44.2 | 43.9 | > 100 | 67.6 | 53.3 | 38.3 | – | – | 71.1 | 49.4 | – | > 100 | – | 89.6 | 47.8 | 63.3 | 30.4 | 90.6
Cc1c/c(=N/NC(=O)c2ccncc2)n2nc(N)sc2n1 | > 100 | > 100 | > 100 | > 100 | > 100 | > 100 | > 100 | > 100 | > 100 | > 100 | > 100 | > 100 | > 100 | > 100 | > 100 | > 100 | > 100 | > 100 | > 100 | –
COC(=O)C(Cc1nc2ccccc2[nH]c1=O)C(=O)C(=O)Nc1ccc(F)cc1 (stereo unspecified) | 42.8 | > 100 | > 100 | > 100 | > 100 | > 100 | > 100 | 56.4 | – | > 100 | 89.1 | – | > 100 | > 100 | > 100 | – | – | > 100 | > 100 | –
O=C(O)COc1ccc(C(=O)/C(SS/C(C(=O)c2ccc(OCC(=O)O)c(Cl)c2Cl)=C2\C=C(c3ccccc3Cl)SS2)=C2/C=C(c3ccccc3Cl)SS2)c(Cl)c1Cl | > 56.5 | > 31.6 | 63.2 | > 58.7 | > 100 | > 68.9 | 7.01 | 24.3 | – | 17.2 | > 100 | – | > 100 | > 100 | > 100 | – | 88.7 | 52 | > 100 | –
COc1c(C)c(O)c2c(c1C)OC(c1ccccc1)CC2=O (stereo unspecified) | > 100 | > 100 | > 100 | > 100 | > 100 | > 100 | 90.5 | > 100 | – | > 100 | > 100 | – | > 100 | – | > 100 | – | > 100 | > 100 | > 100 | –
CCOC(=O)CC(NCc1ccc(N=Cc2nc3ccc(C(F)(F)F)cc3nc2-c2ccccc2)cc1)C(=O)OCC (stereo unspecified) | > 100 | > 100 | > 100 | > 100 | > 77 | > 100 | > 100 | > 100 | – | > 58 | > 100 | – | > 100 | > 69.8 | > 100 | – | > 100 | > 100 | > 100 | –
COC(=O)/C=C(\C)CC/C=C(\C)CCC(O)C(C)(C)O (stereo unspecified) | 53.5 | > 100 | > 100 | 44.9 | > 100 | 75 | 42.2 | > 100 | – | 35.9 | 38.2 | 30.8 | > 100 | > 100 | 61.6 | > 100 | > 100 | 37.8 | 37.5 | 57.8
NS(=O)(=O)c1nnc(NS(=O)(=O)c2ccc(Cl)cc2)s1 | > 100 | > 100 | – | > 100 | – | > 100 | – | > 100 | > 100 | – | > 100 | – | > 100 | > 100 | > 100 | > 100 | > 100 | > 100 | > 100 | > 100
COC1=CC(=O)C2C(C1=O)C(c1ccc(Cl)cc1)[C@@H]2C (stereo partly specified) | 74.9 | > 100 | > 100 | 33.7 | 64.8 | 31.9 | 55.7 | 54.8 | – | 51.2 | > 100 | – | > 100 | 80.3 | > 100 | – | > 100 | 75.6 | – | –
